Data on one compound can be found in patent publication US20230293475A1, “METHODS OF PROVIDING SO[…] TO SUBJECTS WITH IMPAIRED RENAL FUNCTION” (Axsome Malta Ltd., priority 2020, published 2023).

Like-named read-outs stand apart in the source and are kept apart here.

For series [1] the following is noted: 12-week placebo-controlled trials comparing various doses; cited from earlier work.
Series [2] can be described thus: Phase 1 single-dose study, urinary excretion of solriamfetol. The following applies: for Fe(0-48), fraction of the dose excreted unchanged in urine in 48 hours, mean ± SD (%CV) / CL renal: single 75-mg dose; for cumulative amount excreted in urine: Group 5 ESRD, 1 participant; for CL renal: both sexes, human, urine, oral, 75 mg, read-out: CLR, renal clearance, mean ± SD (%CV) (converted). The format is in vivo, human. The method, then: (§1) Groups 1-4 received one dose of solriamfetol HCl (89.3 mg; equivalent to 75-mg solriamfetol) on day 1; Group 5 received one dose equivalent to 75-mg dose on day 1 followed by 4-hour hemodialysis (designated Group 5.2), and one dose equivalent to 75-mg solriamfetol on day 8 without hemodialysis (designated Group 5.1). All doses were administered on an empty stomach following an overnight fast except for participants in Group 5, who received a standardized snack on day 7 and breakfast early on day 8 before starting an 8-hour fast. Participants remained fasting for 4 hours after administration, with water allowed except for 1 hour before and after dosing.
Urine samples were collected predose and for the time intervals of 0-4, 4-8, 8-12, 12-24, and 24-48 hours in Groups 1-3, with additional collection for the 48-72 hour time interval in Groups 4 and 5. During the hemodialysis period on day 1 for Group 5, dialysate samples and pre- and post-dialyzer paired blood samples were collected at pre-dialysis (2 hours), and at 3, 4, 5, and 6 hours following dosing. Urine and dialysate samples were aliquoted into polypropylene tubes for freezing and storage at -70° C. until analysis. All blood, urine, and dialysate samples were shipped on dry ice to a central bioanalytical laboratory.
Bioanalytical analyses were performed by a central laboratory (KCAS, LLC, Shawnee, Kansas) using validated proprietary methods that included extraction/derivatization and liquid chromatography-tandem mass spectrometry (LC-MS/MS). Measurement of solriamfetol was over the linear range of 8.42 to 4,210 ng/mL in plasma, 0.21 to 84.2 µg/mL in urine, and 1.68 to 842 ng/mL in dialysate. Solriamfetol was removed from dialysate samples with use of the Fresenius Optiflux F180NR dialyzer (Fresenius Medical Care, Waltham, Massachusetts). Assay performance was monitored by spiking blank interference free human plasma with positive controls and internal standards to generate standard curve and quality control samples. After derivatization, samples were chromatographed on a C8 reversed phase analytical HPLC (high-performance liquid chromatography) column, with subsequent monitoring using an API4000 LC-MS/MS unit (Sciex, Framingham, Massachusetts). Quantification was based on setting a calibration graph using the internal standard method. Coefficients of variation (CVs) for quality control samples were 3.2% to 6.0% for the plasma samples, 1.6% to 5.6% for the urine samples, and 3.5% to 7.1% for the dialysate samples.
The following plasma PK parameters were evaluated using non-compartmental analysis in Phoenix® WinNonlin® Version 6.3: Cmax; time to reach Cmax following drug administration (tmax); t½; area under the plasma concentration-time curve from time zero to time of last quantifiable concentration (AUCt); AUC from time zero to infinity (AUC∞); apparent total clearance of the drug from plasma after oral administration (CL/F); and apparent volume of distribution (Vd/F). The PK parameters for solriamfetol in urine included the amount of unchanged drug excreted in urine (Ae) over 48 or 72 hours; the fraction of the dose excreted unchanged in urine (Fe); and renal clearance of the drug (CLR). For participants on hemodialysis (Group 5), the additional PK parameters included the amount of solriamfetol cleared by the 4-hour hemodialysis (Adial); the fraction of dose removed by the 4-hour hemodialysis (Fdial); and hemodialysis clearance (CLdial) calculated as CLdial = Adial/AUCdial where AUCdial is the area under the pre-dialyzer plasma concentration-time curve during the hemodialysis period.

Series [3] in a line: Phase 1 study, removal of solriamfetol by 4-hour hemodialysis in ESRD. The format is in vivo, human. As to the method:
as §1
Urine samples were collected predose and for the time intervals of 0-4, 4-8, 8-12, 12-24, and 24-48 hours in Groups 1-3, with additional collection for the 48-72 hour time interval in Groups 4 and 5. During the hemodialysis period on day 1 for Group 5, dialysate samples and pre- and post-dialyzer paired blood samples were collected at pre-dialysis (2 hours), and at 3, 4, 5, and 6 hours following dosing. […]
Bioanalytical analyses were performed by a central laboratory (KCAS, LLC, Shawnee, Kansas) using validated proprietary methods that included extraction/derivatization and liquid chromatography-tandem mass spectrometry (LC-MS/MS). […] Assay performance was monitored by spiking blank interference free human plasma with positive controls and internal standards to generate standard curve and quality control samples. […] Quantification was based on setting a calibration graph using the internal standard method. […]
The following plasma PK parameters were evaluated using non-compartmental analysis in Phoenix® WinNonlin® Version 6.3: Cmax; time to reach Cmax following drug administration (tmax); t½; area under the plasma concentration-time curve from time zero to time of last quantifiable concentration (AUCt); AUC from time zero to infinity (AUC∞); apparent total clearance of the drug from plasma after oral administration (CL/F); and apparent volume of distribution (Vd/F). […]

Setting [4] is: Group 3 moderate renal impairment.
[5] abbreviates: Group 4 severe renal impairment.

Consider `NC(=O)OC[C@H](N)Cc1ccccc1` [solriamfetol, [R]-2-amino-3-phenylpropylcarbamate], for which the “adverse effects (headache, nausea, decreased appetite, anxiety and others), dependence on dose” value in series [1] is listed as “dose-dependent”. For the same compound, the “Fe(0-48), fraction of the dose excreted unchanged in urine in 48 hours, mean ± SD (%CV)” value is recorded as 85.8% in series [2] (Group 1 normal renal function), 80.0% in series [2] (Group 2 mild renal impairment), 66.4% in series [2] (setting [4]) and 57.1% in series [2] (setting [5]). Further, the “cumulative amount excreted in urine” value in series [2] (with hemodialysis) came to 42.1%; in series [2] (without hemodialysis), 52.9%. Further, the CL renal was 283 mL/min in series [2] (Group 1 normal renal function), 155 mL/min in series [2] (Group 2 mild renal impairment), 96.7 mL/min in series [2] (setting [4]) and 63.3 mL/min in series [2] (setting [5]). Besides, the “mean percentage of dose recovered in urine as unchanged drug over 72 hours” value in series [2] (severe renal impairment) was determined as 64.0%. Besides, the “hemodialysis clearance, lower than renal clearance in normal renal function” value in series [3] was “approximately 30%”. In series [3] (both sexes, human, dialysate, oral, 75 mg, day 1), this compound gave a clearance of 207 mL/min. The “cumulative fraction of the 75-mg dose removed over the 4-hour hemodialysis period, mean” value in series [3] (day 1) is given as 20.6%.
